# Laboratory results as given in patent US20200181104A1, “SSAO INHIBITORS AND USES THEREOF” (METACRINE, INC., priority 2018, published 2020).
# Target: T1, Recombinant Human SSAO/VAP-1/AOC3 (Homo sapiens, UniProt Q16853)
# T1 construct: purchased R&D systems 3957-AO
# T1 sequence (Q16853 1-763): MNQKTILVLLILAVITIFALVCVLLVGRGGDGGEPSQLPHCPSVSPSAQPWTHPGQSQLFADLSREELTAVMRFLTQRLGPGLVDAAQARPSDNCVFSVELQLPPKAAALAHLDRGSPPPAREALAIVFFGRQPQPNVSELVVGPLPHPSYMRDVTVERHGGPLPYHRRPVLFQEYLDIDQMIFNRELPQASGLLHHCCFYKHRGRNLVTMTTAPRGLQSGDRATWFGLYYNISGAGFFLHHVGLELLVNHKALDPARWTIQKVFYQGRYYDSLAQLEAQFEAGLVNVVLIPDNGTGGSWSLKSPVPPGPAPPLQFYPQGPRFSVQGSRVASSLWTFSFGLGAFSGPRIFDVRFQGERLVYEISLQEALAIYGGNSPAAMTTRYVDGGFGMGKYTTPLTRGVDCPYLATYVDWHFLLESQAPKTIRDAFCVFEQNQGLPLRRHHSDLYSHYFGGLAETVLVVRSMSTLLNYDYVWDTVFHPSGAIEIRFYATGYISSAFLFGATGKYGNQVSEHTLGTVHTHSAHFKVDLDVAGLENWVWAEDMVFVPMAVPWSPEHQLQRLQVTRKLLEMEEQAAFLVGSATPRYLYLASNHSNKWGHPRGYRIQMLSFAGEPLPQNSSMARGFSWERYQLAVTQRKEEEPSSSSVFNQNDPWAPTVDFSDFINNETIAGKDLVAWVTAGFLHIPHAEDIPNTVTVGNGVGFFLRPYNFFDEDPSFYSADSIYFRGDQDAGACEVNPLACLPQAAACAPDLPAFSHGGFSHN
# Assay: Human Semicarbazide-Sensitive Amine Oxidase (SSAO) Assay
# Type: biochemical
# Conditions: recombinant enzyme, 30 minutes preincubation at 37° C., benzylamine substrate, Amplex Ultra Red/HRP fluorescence
# Protocol: Compounds were dissolved in DMSO to provide a Concentration Response Curve (CRC; at 500 times the final concentration) over a range of 6-10 dilutions.
# Recombinant Human SSAO/VAP-1/AOC3 (R&D systems; Catalog #3957-AO) was used to screen compound potency in vitro, according to previously described methods (J Pharmacol Exp Ther. 2013 November; 347(2):365-74). SSAO enzyme was suspended in 50 mM HEPES buffer to a working concentration of 2.5 μg/ml and 40 μL of this enzyme mixture was then added to each well of a F16 Black Maxisorp 96 well Plate (Nunc, Catalog #475515). Ten microliters of each test compound (at 5 times the final concentration) were added to each well, resulting in a final well volume of 50 μL of the enzyme and inhibitor mixture. The compounds were preincubated with the enzyme for 30 minutes at 37° C., prior to the addition of a 40 μL volume of Amplex Ultra Red (125 uM AUR; Molecular Probes, Catalog # A36006)/Horseradish peroxidase (2.5 U/ml HRP; Sigma-Aldrich Catalog # P8375) oxidase detection reagent containing cytochrome C ([…]; Sigma-Aldrich Catalog # C7752). Cytochrome C was included in the AUR/HRP detection mixture to reduce the background fluorescence that can occur via the spontaneous redox reaction between AUR and HRP. The SSAO enzyme reaction was then initiated by adding 10 μL of the SSAO substrate, benzylamine (Sigma-Aldrich Catalog # B5136), and SSAO activity was measured in kinetic mode over a 30-120 minute sampling period (excit. 544 nm; emit 590 nm; cut off 570 nm; medium gain) to obtain IC50 values for enzyme activity in each treatment well.
row,SMILES,IC50 [nM]
1,"CN(C(=O)C12CCC(c3ccc(OC/C(=C/F)CN)cc3)(CC1)CC2)C1CCOCC1 [Compound 2.16, (E)-4-(4-((2-(amino-methyl)-3-fluoroallyl)oxy)phenyl)-N-methyl-N-(tetrahydro-2H-pyran-4-yl)bicyclo[2.2.2] octane-1-carboxamide]",≤ 10
2,"CNC(=O)CCNC(=O)C12CCC(c3ccc(OC/C(=C/F)CN)cc3)(CC1)CC2 [Compound 2.17, (E)-4-(4-((2-(amino-methyl)-3-fluoroallyl)oxy)phenyl)-N-(3-(methylamino)-3-oxopropyl)bicyclo[2.2.2] octane-1-carboxamide]",≤ 10
3,"CC1(NC(=O)C23CCC(c4ccc(OC/C(=C/F)CN)cc4)(CC2)CC3)CCOCC1 [Compound 2.18, (E)-4-(4-((2-(amino-methyl)-3-fluoroallyl)oxy)phenyl)-N-(4-methyltetrahydro-2H-pyran-4-yl)bicyclo [2.2.2]octane-1-carboxamide]",≤ 10
4,"CC(NC(=O)C12CCC(c3ccc(OC/C(=C/F)CN)cc3)(CC1)CC2)C1CCOCC1 (centres unmarked) [Compound 2.19, (E)-4-(4-((2-(amino-methyl)-3-fluoroallyl)oxy)phenyl)-N-(1-(tetrahydro-2H-pyran-4-yl)ethyl)bicyclo[2.2.2] octane-1-carboxamide]",≤ 10
5,NC/C(=C\F)COc1ccc(C23CCC(C(=O)NCC4CCOCC4)(CC2)CC3)cc1 [Compound 2.20],≤ 10
6,"NC/C(=C\F)COc1ccc(C23CCC(C(=O)NC4CCOC4)(CC2)CC3)cc1 (centres unmarked) [Compound 2.21, (E)-4-(4-((2-(amino-methyl)-3-fluoroallyl)oxy)phenyl)-N-(tetrahydrofuran-3-yl)bicyclo[2.2.2]octane-1-carboxamide]",≤ 10
7,"C[C@H]1COCCN1C(=O)C12CCC(c3ccc(OC/C(=C/F)CN)cc3)(CC1)CC2 [Compound 2.22, (S,E)-(4-(4-((2-(aminomethyl)-3-fluoroallyl)oxy)phenyl)bicyclo[2.2.2]octan-1-yl)(3-methylmorpholino) methanone]",≤ 10
8,"CC(C)NC(=O)C12CCC(c3ccc(OC/C(=C/F)CN)cc3)(CC1)CC2 [Compound 2.23, (E)-4-(4-((2-(aminomethyl)-3-fluoroallyl)oxy)phenyl)-N-isopropylbicyclo [2.2.2]octane-1-carboxamide]",≤ 10
9,"NC/C(=C\F)COc1ccc(C23CCC(C(=O)N4CCCCC4)(CC2)CC3)cc1 [Compound 2.24, (E)-(4-(4-((2-(amino-methyl)-3-fluoroallyl)oxy)phenyl)bicyclo [2.2.2]octan-1-yl)(piperidin-1-yl)methanone]",≤ 10
10,"NC/C(=C\F)COc1ccc(C23CCC(C(=O)N4CCCC4)(CC2)CC3)cc1 [Compound 2.25, (E)-(4-(4-((2-(aminomethyl)-3-fluoroallyl)oxy)phenyl)bicyclo [2.2.2]octan-1-yl)(pyrrolidin-1-yl)methanone]",≤ 10
11,"NC/C(=C\F)COc1ccc(C23CCC(C(=O)NCCCCl)(CC2)CC3)cc1 [Compound 2.26, (E)-4-(4-((2-(aminomethyl)-3-fluoroallyl)oxy)phenyl)-N-(3-chloropropyl)bicyclo[2.2.2] octane-1-carboxamide]",≤ 10
12,"C[C@H](NC(=O)C12CCC(c3ccc(OC/C(=C/F)CN)cc3)(CC1)CC2)C1CCOCC1 [Compound 2.27, (S,E)-4-(4-((2-(aminomethyl)-3-fluoroallyl)oxy)phenyl)-N-(1-(tetrahydro-2H-pyran-4-yl)ethyl)bicyclo[2.2.2]octane-1-carboxamide]",≤ 10
13,"C[C@@H](NC(=O)C12CCC(c3ccc(OC/C(=C/F)CN)cc3)(CC1)CC2)C1CCOCC1 [Compound 2.28, (R,E)-4-(4-((2-(aminomethyl)-3-fluoroallyl)oxy)phenyl)-N-(1-(tetrahydro-2H-pyran-4-yl)ethyl)bicyclo[2.2.2]octane-1-carboxamide]",≤ 10
14,"NC/C(=C\F)COc1ccc(C23CCC(C(=O)N4CC(O)C4)(CC2)CC3)cc1 [Compound 2.29, (E)-(4-(4-((2-(aminomethyl)-3-fluoroallyl)oxy)phenyl)bicyclo [2.2.2]octan-1-yl)(3-hydroxyazetidin-1-yl)methanone]",≤ 10
